# Data reported in patent publication US11534457B2, “Use of dextran sulfate” (priority 2017, dated 2022).
# Entries after “also recorded” stand apart in the source; their conditions may differ.
# Tests used:
# mouse cortical neurons = experiment: PI staining (DNA content, cell cycle, cell numbers, apoptotic fraction), Acumen cytometry; format: cell-based; conditions: 0.01 and 0.1 mg/ml
# Description: The study aims were to evaluate the effect of LMW-DS on cell survival and expression of differentiation proteins in three cell types, cerebral cortical neurons, motor neurons and Schwann cells, using two concentrations 0.01 and 0.1 mg/ml of LMW-DS.
# Neurons were cultured as 40,000 cells per well and Schwann cells 3,000 cells per. Cells were treated after 24 hours. The number of cells per well depended on the growth phenotype, proliferative capacity, etc.
# PNGM was prepared by adding PNGM Singlequots (Lonza) to PNBM medium and pre-warmed to 37° C. Cells were thawed in a 37° C. water bath for no longer than 2 min and gently transferred into a 15 ml tube. 5 ml of medium was gently added drop-wise. Cell suspension was mixed by inverting the tube carefully twice. Cells were counted with a Cellometer AUTO T4 (Nexcelom Bioscience). 40,000 cells per well were seeded in previously coated 96-well plates. Cells were incubated at 37° C. with 5% CO2. After at 2-hour incubation 80 μl of medium was removed and replaced with 80 μl of fresh medium and cells were allowed to settle for 24 hours before drug treatment.
# LMW-DS was prepared in the culture media of choice for each cell line and added to the respective wells in the doses 0.01 and 0.1 mg/ml. For cell survival assays cells were analyzed after 24 and 48 hours in eight identical wells/dose/time point. Differentiation and protein expression assay was analyzed after 48 hours, also in octuplicates.
# Cells were fixated in the wells. Propidium iodine was used for viability assay. For immunohistochemical analysis, neurons were stained with βIII-tubulin, which is a tubulin specific for neurons. Schwann cells were stained for Myelin Basic Protein (MBP). For the negative controls PBST (0.1% Triton-X-100 in PBS) was applied instead of primary antibodies.
# The Acumen cytometer allows the direct cytometric analysis of attached cells without prior detachment. […] The protein content of the cells can also be directly measured and expressed as either ‘total protein content’ or ‘mean protein content’.
# [1] = system: HDF3CGF system [HDFn+(IL-1β, TNFα, IFNγ, EGF, bFGF and PDGF-BB)]; experiment: BioMAP HDF3CGF system; format: cell-based, Human
# Excerpt: In this study LMW-DS was characterized by profiling in the BioMAP® Diversity PLUS panel. The BioMAP® panel consists of human primary cell-based systems designed to model different aspects of the human body in an in vitro format. The 12 systems in the BioMAP® Diversity PLUS panel (Table 32) allow test agent characterization in an unbiased way across a broad set of systems modeling various human disease states. The BioMA®P systems are constructed with one or more primary cell types from healthy human donors, with stimuli, such as cytokines or growth factors, added to capture relevant signaling networks that naturally occur in human tissue or pathological conditions. Vascular biology is modeled in both a Th1 (3C system) and a Th2 (4H system) inflammatory environment, as well as in a Th1 inflammatory state specific to arterial smooth muscle cells (CASM3C system). […]
# Systems are derived from either single cell types or co-culture systems. […] Test agents prepared in either DMSO (small molecules; final concentration 0.1%) or PBS (biologics) are added at the indicated concentrations 1-hr before stimulation, and remain in culture for 24-hrs or as otherwise indicated (48-hrs, MyoF system; 72-hrs, BT system (soluble readouts); 168-hrs, BT system (secreted IgG)). […] Soluble factors from supernatants are quantified using either HTRF® detection, bead-based multiplex immunoassay or capture ELISA. Overt adverse effects of test agents on cell proliferation and viability (cytotoxicity) are detected by sulforhodamine B (SRB) staining, for adherent cells, and alamarBlue® reduction for cells in suspension. For proliferation assays, individual cell types are cultured at subconfluence and measured at time points optimized for each system (48-hrs: 3C and CASM3C systems; 72-hrs: BT and HDF3CGF systems; 96-hrs: SAg system). […]
# [2] = system: Experimental Autoimmune Encephalomyelitis (EAE); experiment: Mouse Experimental Autoimmune Encephalomyelitis (EAE) model, clinical score; format: in vivo, C57B1.6 mice; conditions: 10 mg/kg s.c. three times weekly from day 0; day 13, 14, 16, 17, 19, 21 and 26
substance,measurement,setting,value
low molecular weight dextran sulfate [LMW-DS],cell numbers,mouse cortical neurons,significantly reduced
same,fraction of apoptotic cells,mouse cortical neurons,increased slightly
same,number of cells in the G2/M phase (PI content),mouse cortical neurons; 24 and 48 h,appeared to increase the number of cells in the G2/M phase
same,Decreased biomarker activity,[1]; HDF3CGF system,"VCAM-1, IP-10,; also recorded: ITAC, MIG, M-CSF"
same,Increased biomarker activity,[1]; HDF3CGF system,"EGFR, MMP-1,; also recorded: PAI-1"
same,"key inflammation biomarkers including MIG, VCAM, IP-10 and ITAC",[1]; all tested concentrations,decreased over all tested concentrations
same,mean EAE score vs vehicle control,[2],significantly (#) lower mean score; also recorded: significantly lower mean score
